Source: patent US10894038B2, “Indolizine derivatives, composition and methods of use” (Shanghai Fochon Pharmaceutical Co., Ltd., priority 2015, dated 2021)

Columns and labels:
URAT1 [1] = target: T1, URAT1 (Homo sapiens (Human), UniProt Q96S37); assay: URAT1 in vitro inhibition activity, Method A (14C-uric acid uptake in HEK293-URAT-4 cells); format: cell-based; settings: 50 μM 14C-uric acid, 10 min uptake
Description: The potency of the compounds of formula (I) as inhibitors of the URAT1 was determined as follow.
Cell Lines were generated in WuXi AppTec (HEK293-URAT-4: Stable cell line of HEK293 which was transfected with pcDNA3.1-URAT (Human SLC22A12 cDNA Clone, Abgent-DC07943). HEK293-PCDNA-5: Negative control cell of HEK293 which was transfected with pcDNA3.1 empty vector.
Cells were seeded onto 24-well plates at the density of 2.0×10^5 cells per well. The cells were incubated at 37° C., 5% CO2 overnight. After approximately 24 hours culture, cells were used for uptake experiments. The culture medium were removed from the wells and the cells were incubated in 0.4 ml/well of Hank's balanced salt solution (HBSS) for 10 min. HBSS was replaced with 0.18 ml/well fresh HBSS. Compounds were 5 folds serial diluted in DMSO, and then 25 folds diluted in HBSS. Compounds diluted with HBSS (10 μl) were added to relevant well of cell plates, and plates were incubated at 37° C., 5% CO2 for 15 min. The final concentration of DMSO in the assay was 0.2%. 10 μl HBSS containing radioactively labeled Urate (^14C-uric acid) was added to each well. The final concentration of ^14C-uric acid in the assay medium was 50 μM. After 10 min, the assay medium was immediately removed. The cells were washed quickly with 0.5 ml pre-chilled HBSS twice. 0.1 M NaOH (0.4 ml) was added to lyse the cells for at least 20 min. The cell lysate was collected to a scintillation vial, and scintillant (4 ml) was added and the radioactivity was counted by a liquid scintillation counter. Inhibiton % data were calculated using the formula
[formula] CPD: Signal from a well containing a test compound HC (high control): Average of signals from HEK293-URAT-4 cells LC (low control): Average of signals from HEK293-PCDNA-5.
Target sequence in this assay (Q96S37 whole entry): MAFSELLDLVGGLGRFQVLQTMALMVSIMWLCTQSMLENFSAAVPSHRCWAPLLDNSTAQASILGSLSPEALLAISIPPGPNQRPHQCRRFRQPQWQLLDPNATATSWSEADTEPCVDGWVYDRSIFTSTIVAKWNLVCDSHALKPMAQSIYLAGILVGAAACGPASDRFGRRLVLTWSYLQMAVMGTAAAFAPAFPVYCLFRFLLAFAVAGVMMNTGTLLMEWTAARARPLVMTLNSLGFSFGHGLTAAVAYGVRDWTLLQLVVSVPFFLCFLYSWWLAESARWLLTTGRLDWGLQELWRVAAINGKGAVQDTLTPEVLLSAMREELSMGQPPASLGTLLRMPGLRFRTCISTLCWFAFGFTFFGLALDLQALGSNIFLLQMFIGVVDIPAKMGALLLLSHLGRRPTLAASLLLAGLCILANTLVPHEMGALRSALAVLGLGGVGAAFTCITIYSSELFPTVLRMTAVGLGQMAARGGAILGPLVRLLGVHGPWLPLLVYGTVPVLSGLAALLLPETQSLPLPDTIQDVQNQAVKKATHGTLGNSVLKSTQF

[2] = tested on: potassium oxonate-induced hyperuricemia in rats; assay: Effect on potassium oxonate-induced hyperuricemia in rats (serum uric acid); format: in vivo, rat; settings: male SD rats, 5 mg/kg oral; for serum uric acid levels, time after dosing 0.5 h: 0.5 h after dosing; for serum uric acid levels, time after dosing 1 h: 1 h after dosing; for serum uric acid levels, time after dosing 2 h: 2 h after dosing; for serum uric acid levels, time after dosing 3 h: 3 h after dosing; for serum uric acid levels, time after dosing 4 h: 4 h after dosing
Description: Healthy male SD rats, weighing 250±20 g, were used. In the experiment, except for 10 rats as normal control group were orally administered with distilled water, the others were orally administered with yeast extract (20 g/kg, qd×5 days). One hour after last administration, all the rats were intraperitoneal injection with 250 mg/kg potassium oxonate while normal control group was treated with an equal volume of 0.5% CMC-Na (injection volume of 2 ml/kg). After one hour, rats were anesthetized with isoflurane and the serum uric acid was determined by uric acid test strip. All the rats were divided into groups by uric acid. The model control group and experimental groups was given orally administration 0.5% CMC-Na or compounds with a dose of 10 ml/kg-bw. Phosphotungstic acid precipitation method was used to detect serum uric acids in inner canthus blood at 0.5, 1, 2, 3, 4 h after administration, respectively. Substantially, observing the effects of compounds on serum uric acids levels and calculating each of groups' AUC and the inhibition of uric acid increased area by the equation as follows: […]
As shown in the equation, AUC0 indicated the AUC of model control group, AUC1 indicated the AUC of therapy group, AUC2 indicated the AUC of normal control group.

URAT1 [3] = target: T1, URAT1; assay: URAT1 in vitro inhibition activity, Method B (14C-uric acid uptake in HEK293-URAT1 cells); format: cell-based; settings: 5.0 μmol/L 14C-uric acid, 2 min uptake
Description: HEK293-URAT1 cell Lines were donated by Japan Fuji Biomedical Research Institute. Negative control cell of HEK293 (MOCK cells) which was transfected with pcDNA3.1 empty vector. HEK293-URAT1 cell lines and MOCK cell lines were cultured in complete growth medium consisting of DMEM supplemented with 10% FBS, penicillin and streptomycin.
Preparation of working solution: Each stock solutions was diluted to different concentrations (6, 20, 60, 200 and 600 μmol/L) with DMSO as 200× working solution, which was then diluted to 2×compound working solution with HBSS (Cl^− free) buffer. Radiolabeled substrate ^14C-Uric acid solution was diluted with HBSS (Cl^− free) buffer to obtain 2× working solution which was mixed with an equal volume of 2× compound working solution to obtain the mixture of radiolabeled substrate and compound working solution.
HER293-URAT1 and MOCK cells were seeded onto 24-well plates at the density of 1.5×10^6 cells per well. The cells were incubated at 37° C., 5% CO2 overnight. After cultured for approximately 2 to 3 days, cells were used for the experiments. The culture medium were removed from the wells, and cells were washed with HBSS (Cl^− free) and incubated in 37° C. HBSS (Cl^− free) for 10 min. HBSS was replaced with 500 μL of the mixture of radiolabeled substrate and compound working solution. The final concentration of ^14C-Uric acid in the assay was 5.0 μmol/L. Plates were incubated at 37° C., 5% CO2 for 2 min, and the reaction was stopped by the addition of pre-chilled HBSS (Cl^− free) by washing three times. 400 μL NaOH ([…]) was added to lyse the cells and the cell lysate was collected to scintillation vials, and 3 ml scintillant (Aquasol-2, PerkinElmer) was added and after mixing completely, the radioactivity was counted by Tri-Carb 2910TR liquid scintillation counter. Each concentration of compounds, positive control and negative control were repeated in two wells (n=2). Inhibition % data were calculated using the formula: Inhibition=[100×(U−U0)/(Uc−U0)]%, and analyzed using Prism5 software.
U0: Average of signals of MOCK cells;
Uc: Average of signals of radiolabeled substrate. The half inhibition concentration of the tested compounds to URAT1 were analyzed using Prism 5 software.
Target sequence in this assay (Q96S37 whole entry, species assumed): as the sequence (Q96S37 whole entry) above

Compound | IC50 (URAT1 [1]) [µM] | serum uric acid levels, time after dosing 0.5 h [2] [µmol/L] | serum uric acid levels, time after dosing 1 h [2] [µmol/L] | serum uric acid levels, time after dosing 2 h [2] [µmol/L] | serum uric acid levels, time after dosing 3 h [2] [µmol/L] | serum uric acid levels, time after dosing 4 h [2] [µmol/L] | IC50 (URAT1 [3]) [µM]
CC(C)(Sc1ccncc1-c1ccc(C#N)c2cccn12)C(=O)O [Example 2, 2-((3-(8-cyanoindolizin-5-yl)pyridin-4-yl)thio)-2-methylpropanoic acid] | 0.066 |  |  |  |  |  | 
CC(C)(Sc1ccncc1-c1ccc(C#N)c2ccc(Cl)n12)C(=O)O [Example 3, 2-((3-(3-chloro-8-cyanoindolizin-5-yl)pyridin-4-yl)thio)-2-methylpropanoic acid] | 0.282 |  |  |  |  |  | 
CC(C)(Sc1ccncc1-c1ccc(C#N)c2c(Cl)ccn12)C(=O)O [Example 4, 2-((3-(1-chloro-8-cyanoindolizin-5-yl)pyridin-4-yl)thio)-2-methylpropanoic acid] | 0.068 |  |  |  |  |  | 
N#Cc1ccc(-c2cnccc2SC2(C(=O)O)CCC2)c2cccn12 [Example 8, 1-((3-(5-cyanoindolizin-8-yl)pyridin-4-yl)thio)cyclobutane-1-carboxylic acid] |  | 449.8 ± 39.8 | 483.9 ± 62.9 | 451.2 ± 58.9 | 393.9 ± 68.6 | 358.3 ± 68.2 | 0.055
CC(C)(Sc1ccncc1-c1ccc(C#N)n2cccc12)C(=O)O [Example 9, 2-((3-(5-cyanoindolizin-8-yl)pyridin-4-yl)thio)-2-methylpropanoic acid] |  | 432.1 ± 43.2 | 450.8 ± 40.9 | 385.5 ± 52.2 | 347.1 ± 46.8 | 336.3 ± 59.1 | 
N#Cc1ccc(-c2cnccc2SC2(C(=O)O)CCC2)c2ccc(Cl)n12 [Example 10, 1-((3-(3-chloro-5-cyanoindolizin-8-yl)pyridin-4-yl)thio)cyclobutane-1-carboxylic acid] |  |  |  |  |  |  | 0.424
N#Cc1ccc(-c2cnccc2SC2(C(=O)O)CCC2)c2cc(Cl)cn12 [Example 11, 1-((3-(2-chloro-5-cyanoindolizin-8-yl)pyridin-4-yl)thio)cyclobutane-1-carboxylic acid] |  |  |  |  |  |  | 0.828
N#Cc1ccc(-c2cnccc2SC2(C(=O)O)CCC2)c2cc(F)cn12 [Example 12, 1-((3-(5-cyano-2-fluoroindolizin-8-yl)pyridin-4-yl)thio)cyclobutane-1-carboxylic acid] |  |  |  |  |  |  | 0.271
N#Cc1ccc(-c2cnccc2SC2(C(=O)O)CCC2)n2cc(Cl)cc12 [Example 13, 1-((3-(2-Chloro-8-cyanoindolizin-5-yl)pyridin-4-yl)thio)cyclobutane-1-carboxylic acid] |  | 487.2 ± 46.9 | 523.6 ± 50.4 | 422.0 ± 54.1 | 341.4 ± 69.4 | 295.5 ± 47.2 | 0.026
CC(C)(Sc1ccncc1-c1ccc(C#N)c2cc(Cl)cn12)C(=O)O [Example 14, 2-((3-(2-chloro-8-cyanoindolizin-5-yl)pyridin-4-yl)thio)-2-methylpropanoic acid] |  | 476.3 ± 53.4 | 489.5 ± 83.1 | 385.8 ± 68.2 | 337.2 ± 72.4 | 285.4 ± 47.7 | 0.03
N#Cc1ccc(-c2cnccc2SC2(C(=O)O)CCC2)n2cc(Br)cc12 [Example 15, 1-((3-(2-bromo-8-cyanoindolizin-5-yl)pyridin-4-yl)thio)cyclobutane-1-carboxylic acid] |  | 476.8 ± 61.7 | 496.3 ± 74.8 | 401.7 ± 52.9 | 331.3 ± 70.5 | 278.0 ± 46.0 | 0.029
CC(C)(Sc1ccncc1-c1ccc(C#N)c2cc(Br)cn12)C(=O)O [Example 16, 2-((3-(2-bromo-8-cyanoindolizin-5-yl)pyridin-4-yl)thio)-2-methylpropanoic acid] |  | 460.6 ± 46.5 | 491.9 ± 77.4 | 380.6 ± 47.4 | 293.9 ± 42.1 | 264.7 ± 38.8 | 
N#Cc1cc2c(C#N)ccc(-c3cnccc3SC3(C(=O)O)CCC3)n2c1 [Example 17, 1-((3-(2,8-dicyanoindolizin-5-yl)pyridin-4-yl)thio)cyclobutane-1-carboxylic acid] |  | 454.4 ± 39.8 | 458.1 ± 66.7 | 432.2 ± 67.6 | 403.0 ± 70.0 | 340.1 ± 56.0 | 0.045
CS(=O)(=O)c1cc2c(C#N)ccc(-c3cnccc3SC3(C(=O)O)CCC3)n2c1 [Example 19, 1-((3-(8-cyano-2-(methylsulfonyl)indolizin-5-yl)pyridin-4-yl)thio)cyclobutane-1-carboxylic acid] |  |  |  |  |  |  | 0.332
N#Cc1ccc(-c2cnccc2SC2(C(=O)O)CCC2)n2c(F)ccc12 [Example 20, 1-((3-(8-Cyano-3-fluoroindolizin-5-yl)pyridin-4-yl)thio)cyclobutane-1-carboxylic acid] |  |  |  |  |  |  | 0.034
N#Cc1ccc(-c2cnccc2SC2(C(=O)O)CCC2)n2ccc(F)c12 [Example 21, 1-((3-(8-cyano-1-fluoroindolizin-5-yl)pyridin-4-yl)thio)cyclobutane-1-carboxylic acid] |  |  |  |  |  |  | 0.085
N#Cc1ccc(-c2cnccc2SC2(C(=O)O)CCC2)n2c(Cl)ccc12 [Example 23, 1-((3-(3-chloro-8-cyanoindolizin-5-yl)pyridin-4-yl)thio)cyclobutane-1-carboxylic acid] |  |  |  |  |  |  | 0.089
COCC(C)(Sc1ccncc1-c1ccc(C#N)c2cccn12)C(=O)O (stereo not drawn) [Example 31, 2-((3-(8-cyanoindolizin-5-yl)pyridin-4-yl)thio)-3-methoxy-2-methylpropanoic acid] |  |  |  |  |  |  | 0.504
